According to US6204293A, “Inhibitors of protein isoprenyl transferases” (University of Pittsburgh, priority 1998, dated 2001):
Counter-ions that a name gives are not always drawn.

What follows are compounds tested against T1, Rat brain protein farnesyltransferase (Rattus norvegicus, UniProt Q02293+Q04631) (assay: % inhibition of farnesylation, scintillation proximity assay with biotin-K Ras B fragment). Details: Table 1; 1 × 10^-5 M.
T1 construct: Rat brain protein farnesyltransferase activity is measured; from tissue; host or cells: rat brain
T1 sequence (Q02293 whole entry, the tested form may be a part, one chain of several): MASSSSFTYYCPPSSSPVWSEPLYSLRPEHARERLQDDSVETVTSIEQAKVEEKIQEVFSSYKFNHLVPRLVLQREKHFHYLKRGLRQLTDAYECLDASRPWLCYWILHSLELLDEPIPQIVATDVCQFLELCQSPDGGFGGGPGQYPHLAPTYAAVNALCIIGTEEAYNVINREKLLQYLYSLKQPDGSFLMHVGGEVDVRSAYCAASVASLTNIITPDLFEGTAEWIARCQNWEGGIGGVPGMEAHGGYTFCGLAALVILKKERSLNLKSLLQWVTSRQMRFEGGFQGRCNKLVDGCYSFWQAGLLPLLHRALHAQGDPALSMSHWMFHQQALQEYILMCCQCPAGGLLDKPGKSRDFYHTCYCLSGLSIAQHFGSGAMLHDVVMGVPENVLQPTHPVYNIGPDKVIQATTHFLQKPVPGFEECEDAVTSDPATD
Assay type: biochemical
Procedure, shortened: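 Rat brain enzyme, purified through three steps, in a scintillation proximity assay kit with biotin-K Ras B fragment substrate at 0.1 mM final. Value is % inhibition of farnesylation.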

SMILES | % inhibition at 1 × 10^-5 M [%]
CSCC[C@H](NC(=O)c1ccc(CN[C@H](CC2CCCCC2)[C@H](O)[C@H](O)CC(C)C)cc1-c1ccccc1)C(=O)O [Example 715] | 67
CSCC[C@H](NC(=O)c1ccc(CNCc2cc(Cl)cc(Cl)c2)cc1-c1ccccc1)C(=O)O [Example 712] | 69
COc1ccc(Br)c(C(=O)Nc2ccc(C(=O)N[C@@H](CCSC)C(=O)O)c(-c3ccccc3)c2)c1 [Example 754] | 40

Same assay, conditions: Table 2; 1 × 10^-6 M

SMILES | % inhibition at 1 × 10^-6 M [%]
CSCC[C@H](NC(=O)c1ccc(CNc2ccccc2F)cc1-c1ccccc1)C(=O)O [Example 642] | 48
CCCCON(CCC1CCCCC1)Cc1ccc(C(=O)N[C@@H](CCS(C)(=O)=O)C(=O)O)c(-c2ccccc2C)c1 [Example 298] | 43
COc1ccc(CC(=O)Nc2ccc(C(=O)N[C@@H](CCSC)C(=O)O)c(-c3ccccc3C)c2)cc1 [Example 542] | 67
COc1ccc(CCNS(=O)(=O)c2ccc(C(=O)N[C@@H](CCSC)C(=O)O)c(-c3ccccc3C)c2)cc1OC [Example 776] | 36
CCCCN(C)N(CCC1CCCCC1)Cc1ccc(C(=O)N[C@@H](CCS(C)(=O)=O)C(=O)O)c(-c2ccccc2C)c1 [Example 300] | 22
CSCC[C@H](NC(=O)c1ccc(CNc2ccccc2Oc2ccccc2)cc1-c1ccccc1)C(=O)O [Example 645] | 37
CSCC[C@H](NC(=O)c1ccc(CN(C(C)C)C2(Cc3ccccc3)CCC2)cc1-c1ccccc1C)C(=O)O [Example 331] | 98
Cc1ccccc1-c1cc(CCc2cccc(Oc3ccccc3)c2)ccc1C(=O)N[C@@H](CC[S+](C)[O-])C(=O)O (some centres unmarked) [Example 460] | 88
CSCC[C@H](NC(=O)c1ccc(CCCC(=O)c2ccc3ccccc3c2)cc1-c1ccccc1C)C(=O)O [Example 473] | 96
CSCC[C@H](NC(=O)c1ccc(CNc2ccccc2N2CCCCC2)cc1-c1ccccc1)C(=O)O [Example 673] | 59
CSCC[C@H](NC(=O)c1ccc(S(=O)(=O)N(Cc2ccccc2)c2ccccc2)cc1-c1ccccc1C)C(=O)[O-].[Li+] [Example 768] | 67
CSCC[C@H](NC(=O)c1ccc(CN(CC23CC4CC(CC(C4)C2)C3)c2ccccc2)cc1-c1ccccc1C)C(=O)O [Example 510] | 84
CSCC[C@H](NC(=O)c1ccc(CNC(C)(C)CC2CCCCC2)cc1-c1ccccc1C)C(=O)O [Example 308] | 62

Same assay, conditions: Table 3; 1 × 10^-7 M

SMILES | % inhibition at 1 × 10^-7 M [%]
CCCCN(CCCC)C(=O)CNCc1ccc(C(=O)N[C@@H](CCSC)C(=O)O)c(-c2ccccc2C)c1 [Example 912] | 85
CSCC[C@H](NC(=O)c1ccc(CCc2ccccc2Cc2ccccc2)cc1-c1ccccc1C)C(=O)O [Example 458] | 87
CSCC[C@H](NC(=O)c1ccc(CN[C@@H](CO)CC2CCCCC2)cc1-c1ccccc1C)C(=O)O [Example 618] | 89
CCSC[C@H](CC1CCCCC1)N(Cc1ccc(C(=O)N[C@@H](CCSC)C(=O)O)c(-c2ccccc2C)c1)S(=O)(=O)c1ccccc1 [Example 951] | 71
CCSC[C@H](CC1CCCCC1)N(Cc1ccc(C(=O)N[C@@H](CCSC)C(=O)O)c(-c2ccccc2C)c1)C(C)=O [Example 947] | 79

Same assay, conditions: Table 4; 1 × 10^-8 M

SMILES | % inhibition at 1 × 10^-8 M [%]
CSCC[C@H](NC(=O)c1ccc(CON=C(Cc2ccccc2)Cc2ccccc2)cc1-c1ccccc1C)C(=O)O [Example 888] | 86
CSCC[C@H](NC(=O)c1ccc(CN2CCC[C@H]2COc2ccccc2)cc1-c1ccccc1C)C(=O)O [Example 991] | 69

Same assay, conditions: Table 6; * footnote 0.1 μM (title: 0.1 mM)

SMILES | % inhibition at 0.1 μM (*) [%]
CCCCC(OCc1ccc(C(=O)N[C@@H](CCSC)C(=O)[O-])c(-c2ccccc2C)c1)C1CCNCC1.[Li+] (some centres unmarked) [Example 1288] | 69

Same assay, conditions: read-out: % inhibition at 0.01 μM (**)

SMILES | inhibition at 0.01 µM [%]
CSCC[C@H](NC(=O)c1ccc(COCc2ccnnc2)cc1-c1ccccc1C)C(=O)O [Example 1221, N-[4-(Pyridazin-4-ylmethoxymethyl)-2-(2-methylphenyl)benzoyl]methionine lithium salt] | 82
CCCCC(OCc1ccc(C(=O)N[C@@H](CCSC)C(=O)O)c(-c2ccccc2C)c1)c1cccc(Cl)c1 (some centres unmarked) [Example 1206, N-[4-(1-(3-chlorophenyl)pentan-1-yloxymethyl)-2-(2-methylphenyl)benzoyl]methionine lithium salt] | 63

Same assay, conditions: read-out: % inhibition at 0.01 μM (**); Table 6; ** footnote 0.01 μM (title: 0.01 mM)

SMILES | inhibition at 0.01 µM [%]
CSCC[C@H](NC(=O)c1ccc(COC(CC2CCCCC2)c2scnc2C)cc1-c1ccccc1C)C(=O)O (some centres unmarked) [Example 1097, N-[4-(1-(4-methylthiazol-5-yl)-2-cyclohexylethoxy)methyl)-2-(2-methylphenyl)benzoyl]methionine lithium salt] | 80

Same assay, conditions: read-out: % inhibition at 0.1 μM (*); Table 6; * footnote 0.1 μM (title: 0.1 mM)

SMILES | inhibition at 0.1 µM [%]
CSCC[C@H](NC(=O)c1ccc(COC(Cc2ccccc2)C2CCN(S(=O)(=O)c3ccccc3)CC2)cc1-c1ccccc1C)C(=O)O (some centres unmarked) [Example 1253, N-[4-(2-phenyl-1-(4-(N-phenylsulfonyl)piperidinyl)ethyloxymethyl-2-(2-methylphenyl)benzoyl]methioninelithium salt] | 76
CCCCC(OCc1ccc(C(=O)N[C@@H](CCSC)C(=O)O)c(-c2ccccc2C)c1)c1scnc1C (some centres unmarked) [Example 1095, N-[4-(1-(4-methylthiazol-5-yl)pentyloxy)methyl)-2-(2-methylphenyl)benzoyl]methionine lithium salt] | 76
CCCC[C@@H](COCc1ccc(C(=O)N[C@@H](CCSC)C(=O)O)c(-c2ccccc2C)c1)CC1CCCCC1 [Example 1315, N-[4-(2-Cyclohexylmethylhex-1-yloxymethyl)-2-(2-methylphenyl)benzoyl]methionine Lithium Salt] | 86

Same assay, conditions: read-out: % inhibition at 1 × 10^-6 M

SMILES | inhibition at 1 µM [%]
CSCC[C@H](NC(=O)c1ccc(COC2(Cc3ccccc3)CCN(C(=O)OC(C)(C)C)CC2)cc1-c1ccccc1C)C(=O)O [Example 809, N-[4-(1-t-butoxycarbonyl-4-benzylpiperidin-4-yloxymethyl)-2-(2-methylphenyl)benzoyl]methionine lithium salt] | 78
CSCC[C@H](NC(=O)c1ccc(COCCc2ccccc2)cc1-c1ccccc1C)C(=O)O [Example 587, N-[4-(2-phenylethoxymethyl)-2-(2-methylphenyl)benzoyl]methionine lithium salt] | 97

Same assay, conditions: read-out: % inhibition at 1 × 10^-6 M; Table 2; 1 × 10^-6 M

SMILES | inhibition at 1 µM [%]
CSCC[C@H](NC(=O)c1ccc(OCCOc2ccccc2)cc1-c1ccccc1C)C(=O)O [Example 561, N-[4-(2-phenoxy)ethoxy-2-(2-methylphenyl)benzoyl]methionine] | 91
CSCC[C@H](NC(=O)c1cc(Cc2ccccc2)c(COCc2ccco2)cc1-c1ccccc1C)C(=O)O [Example 924] | 77
CSCC[C@H](NC(=O)c1ccc(CSc2nc3ccccc3o2)cc1-c1ccccc1C)C(=O)O [Example 322, [4-(2-benzoxazolylthiomethyl)-2-(2-methylphenyl)benzoyl]methionine] | 98
CSCC[C@H](NC(=O)c1ccc(OC/C=C/c2ccccc2)cc1-c1ccccc1C)C(=O)O [Example 560, N-[4-(3-phenyl)prop-2-en-1-yloxy-2-(2-methylphenyl)benzoyl]methionine] | 91
CSCC[C@H](NC(=O)c1ccc(COCCC23CC4CC(CC(C4)C2)C3)cc1-c1ccccc1C)C(=O)O [Example 404, 4-[2-(1-adamantane)ethoxy]methyl-2(2-methylphenyl)benzoylmethionine lithium salt.] | 98

Same assay, conditions: read-out: % inhibition at 1 × 10^-7 M

SMILES | inhibition at 0.1 µM [%]
CSCC[C@H](NC(=O)c1ccc(COC(Cc2ccccc2)c2ccco2)cc1-c1ccccc1C)C(=O)O (some centres unmarked) [Example 534, N-[4-(1-furan-2-yl-2-phenylethoxymethyl)-2-(2-methylphenyl)benzoyl]methionine lithium salt] | 84
CSCC[C@H](NC(=O)c1ccc(COCc2cnc(-c3cccc(Cl)c3)o2)cc1-c1ccccc1C)C(=O)O [Example 893, N-[4-(2-(3-chlorophenyl)oxazol-5-ylmethoxymethyl)-2-(2-methylphenyl)benzoyl]methionine lithium salt] | 87
CSCC[C@H](NC(=O)c1ccc(COCc2cncs2)cc1-c1ccccc1C)C(=O)O [Example 539, N-[4-(thiazol-5-ylmethoxymethyl)-2-(2-methylphenyl)benzoyl]methionine lithium salt] | 89
CSCC[C@@H](C(=O)O)N(C)C(=O)c1ccc(COCCCC2CCCCC2)cc1-c1ccccc1C [Example 597, N-[4-(3-cyclohexylpropoxymethyl)-2-(2-methylphenyl)benzoyl]-N-methylmethionine lithium salt] | 75
COc1ccccc1COCc1ccc(C(=O)N[C@@H](CCSC)C(=O)O)c(-c2ccccc2C)c1 [Example 931, N-[4-(2-methoxybenzyloxymethyl)-2-(2-methylphenyl)benzoyl]methionine lithium salt] | 98

Same assay, conditions: read-out: % inhibition at 1 × 10^-7 M; Table 3; 1 × 10^-7 M

SMILES | inhibition at 0.1 µM [%]
CSCC[C@H](NC(=O)c1ccc(COCc2ccc(-c3ccc(Cl)cc3)o2)cc1-c1ccccc1C)C(=O)O [Example 443, N-[4-(5-(4-chlorophenyl)furan-2-ylmethoxmethyl)-2-(2-methylphenyl)benzoyl]methionine lithium salt] | 97

Same assay, conditions: read-out: % inhibition at 1 × 10^-8 M

SMILES | inhibition at 0.01 µM [%]
CSCC[C@H](NC(=O)c1ccc(COCc2cc(-c3ccc(Cl)cc3)co2)cc1-c1ccccc1C)C(=O)O [Example 904, N-[4-(4-(4-chlorophenyl)furan-2-ylmethoxymethyl)-2-(2-methylphenyl)benzoyl]methionine lithium salt] | 85
